Data taken from the CheMixHub viscosity set.

Assay: xn = mol fraction of the nth substance listed

O=S(=O)([O-])c1ccc(Cl)cc1.[Na+] + O
viscosity [mPa·s], 101 kPa
Details | x1 = 9e-05 | x1 = 0.00018 | x1 = 0.0009 | x1 = 0.0018 | x1 = 0.00448 | x1 = 0.00893 | x1 = 0.0133 | x1 = 0.0177
298.15 K | 0.899 | 0.9 | 0.916 | 0.939 | 1 | 1.103 | 1.219 | –
318.15 K | 0.598 | 0.599 | 0.608 | 0.623 | 0.659 | 0.723 | 0.793 | 0.869

[Ba+2].[Cl-].[Cl-] + O
viscosity [mPa·s], 101.3 kPa
Details | x1 = 0.0009 | x1 = 0.0018 | x1 = 0.00893 | x1 = 0.0125 | x1 = 0.0177 | x1 = 0.02116 | x1 = 0.02631
293.15 K | 1.016 | 1.027 | 1.123 | 1.174 | 1.261 | 1.325 | 1.43
298.15 K | 0.9041 | 0.9144 | 1.005 | 1.053 | 1.134 | 1.194 | 1.29
303.15 K | 0.8105 | 0.8204 | 0.9062 | 0.9513 | 1.027 | 1.082 | 1.171
308.15 K | 0.7315 | 0.7405 | 0.8219 | 0.8637 | 0.9352 | 0.9867 | 1.069
318.15 K | 0.6068 | 0.6141 | 0.688 | 0.725 | 0.788 | 0.8328 | 0.9047

c1ncncn1 + O
viscosity [mPa·s], 101 kPa
Details | x1 = 9.04e-05 | x1 = 0.0001902 | x1 = 0.0002698 | x1 = 0.0003238 | x1 = 0.0005432 | x1 = 0.0005796 | x1 = 0.0006388
293.15 K | 0.9241 | 0.9097 | 0.8902 | 0.8869 | 0.8968 | 0.8957 | 0.8944
298.15 K | 0.8187 | 0.8008 | 0.7878 | 0.7742 | 0.8122 | 0.8002 | 0.7864
303.15 K | 0.7307 | 0.7212 | 0.7162 | 0.71 | 0.7263 | 0.7135 | 0.6979
